Here are results for 31 molecules from patent publication US8921376B2, “Pyrrolopyridines useful as inhibitors of protein kinase” (Vertex Pharmaceuticals Incorporated, priority 2005, dated 2014).

pKi: −log10 of the molar value. Bounds are passed on as bounds.

Holding throughout (assay type): biochemical
One experiment deals with ROCK I (Homo sapiens, UniProt Q13464). Put plainly: ROCK-I inhibition assay (radioactive enzyme assay, MBP substrate). As to the method: Compounds were screened for their ability to inhibit ROCK using a standard radioactive enzyme assay. Assays were carried out in a solution containing 100 mM HEPES (pH 7.5), 10 mM MgCl2, 25 mM NaCl, 2 mM DTT, and 1.5% DMSO. Final substrate concentrations in the assay were 13 μM [γ-^33P] ATP (25 mCi ^33P ATP/mmol ATP, Perkin Elmer, Cambridge, Mass./Sigma Chemicals, St Louis, Mo.) and 27 μM Myelin Basic Protein (MBP). Final enzyme concentration in the assay was 5 nM ROCK. Assays were carried out at room temperature. 1.5 μl of DMSO stock containing serial dilutions of the compound of the present invention (concentrations ranging from 10 μM to 2.6 nM) was placed in a 96 well plate. 50 μl of Solution 1 (100 mM HEPES (pH 7.5), 10 mM MgCl2, […]) was added to the plate. The reaction was initiated by addition of 50 μl of Solution 2 (100 mM HEPES (pH 7.5), 10 mM MgCl2, 4 mM DTT, […] and 10 nM ROCK). After 2 hours the reaction was quenched with 50 μL of 30% trichloroacetic acid (TCA, Fisher) containing 9 mM ATP. Transfer of 140 μL of the quenched reaction to a glass fiber filter plate (Corning, Cat. No. 3511) was followed by washing 3 times with 5% TCA. 50 μl of Optima Gold scintillation fluid (Perkin Elmer) was added and the plates were counted on a Top Count (Perkin Elmer). After removing mean background values for all of the data points the data was fit using Prism software to obtain a Ki(app).
ROCK I, sequence (Q13464 whole entry): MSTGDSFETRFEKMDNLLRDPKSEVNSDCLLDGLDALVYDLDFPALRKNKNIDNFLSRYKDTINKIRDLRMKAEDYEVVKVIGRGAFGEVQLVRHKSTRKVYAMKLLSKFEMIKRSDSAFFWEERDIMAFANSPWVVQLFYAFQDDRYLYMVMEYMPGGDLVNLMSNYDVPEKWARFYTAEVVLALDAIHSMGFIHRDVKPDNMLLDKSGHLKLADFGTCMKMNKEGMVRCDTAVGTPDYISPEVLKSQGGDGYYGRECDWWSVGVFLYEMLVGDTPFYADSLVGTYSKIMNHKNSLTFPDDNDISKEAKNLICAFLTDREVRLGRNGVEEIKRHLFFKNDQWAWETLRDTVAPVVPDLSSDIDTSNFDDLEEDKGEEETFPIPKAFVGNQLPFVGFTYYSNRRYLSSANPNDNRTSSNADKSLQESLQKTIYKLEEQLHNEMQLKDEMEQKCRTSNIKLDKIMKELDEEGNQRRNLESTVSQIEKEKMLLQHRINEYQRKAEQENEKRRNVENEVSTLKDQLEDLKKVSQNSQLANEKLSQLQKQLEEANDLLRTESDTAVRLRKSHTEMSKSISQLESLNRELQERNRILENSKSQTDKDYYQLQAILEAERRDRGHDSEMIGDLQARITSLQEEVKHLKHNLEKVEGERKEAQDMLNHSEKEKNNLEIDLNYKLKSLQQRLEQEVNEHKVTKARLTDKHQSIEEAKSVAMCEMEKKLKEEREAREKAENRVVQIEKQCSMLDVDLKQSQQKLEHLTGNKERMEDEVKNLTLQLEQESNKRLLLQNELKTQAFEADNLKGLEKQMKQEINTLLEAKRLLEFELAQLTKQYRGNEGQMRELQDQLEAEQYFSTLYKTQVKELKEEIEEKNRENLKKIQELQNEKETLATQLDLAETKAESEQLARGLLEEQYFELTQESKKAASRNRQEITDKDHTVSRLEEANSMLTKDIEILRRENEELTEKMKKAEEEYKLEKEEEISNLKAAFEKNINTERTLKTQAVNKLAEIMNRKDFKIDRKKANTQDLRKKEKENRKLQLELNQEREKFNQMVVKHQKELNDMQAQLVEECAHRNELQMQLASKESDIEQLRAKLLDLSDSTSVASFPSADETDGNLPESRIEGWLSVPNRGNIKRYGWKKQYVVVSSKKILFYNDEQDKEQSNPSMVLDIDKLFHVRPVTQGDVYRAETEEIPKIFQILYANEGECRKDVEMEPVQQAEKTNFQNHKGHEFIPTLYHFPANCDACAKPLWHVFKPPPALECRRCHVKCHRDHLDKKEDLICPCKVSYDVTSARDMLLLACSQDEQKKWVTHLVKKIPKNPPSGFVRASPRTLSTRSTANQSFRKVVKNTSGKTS

Another experiment concerns the target JAK2 (Homo sapiens, UniProt O60674). As to the kind of experiment: JAK2 inhibition assay (as Example 3 with JAK-2 enzyme). As to the method: (§1) Compounds were screened for their ability to inhibit JAK using the assay shown below. Reactions were carried out in a kinase buffer containing 100 mM HEPES (pH 7.4), 1 mM DTT, 10 mM MgCl2, 25 mM NaCl, and 0.01% BSA.
(§2) Substrate concentrations in the assay were 5 μM ATP (200 μCi/μmole ATP) and 1 μM poly(Glu)4Tyr. Reactions were carried out at 25° C. and 1 nM JAK3.
(§3) To each well of a 96 well polycarbonate plate was added 1.5 μl of a candidate JAK3 inhibitor along with 50/1 of kinase buffer containing 2 μM poly(Glu)4Tyr and 10 μM ATP. This was then mixed and 50 μl of kinase buffer containing 2 nM JAK3 enzyme was added to start the reaction. After 20 minutes at room temperature (25 C), the reaction was stopped with 50 μl of 20% trichloroacetic acid (TCA) that also contained 0.4 mM ATP. The entire contents of each well were then transferred to a 96 well glass fiber filter plate using a TomTek Cell Harvester. After washing, 60 μl of scintillation fluid was added and ^33P incorporation detected on a Perkin Elmer TopCount.
The assays were as described above in Example 3 except that JAK-2 enzyme was used, the final poly(Glu)4Tyr concentration was 15 μM, and final ATP concentration was 12 μM.

A further experiment concerns the target T1, JAK3 (Homo sapiens, UniProt P52333).
T1 sequence (P52333 1-1124): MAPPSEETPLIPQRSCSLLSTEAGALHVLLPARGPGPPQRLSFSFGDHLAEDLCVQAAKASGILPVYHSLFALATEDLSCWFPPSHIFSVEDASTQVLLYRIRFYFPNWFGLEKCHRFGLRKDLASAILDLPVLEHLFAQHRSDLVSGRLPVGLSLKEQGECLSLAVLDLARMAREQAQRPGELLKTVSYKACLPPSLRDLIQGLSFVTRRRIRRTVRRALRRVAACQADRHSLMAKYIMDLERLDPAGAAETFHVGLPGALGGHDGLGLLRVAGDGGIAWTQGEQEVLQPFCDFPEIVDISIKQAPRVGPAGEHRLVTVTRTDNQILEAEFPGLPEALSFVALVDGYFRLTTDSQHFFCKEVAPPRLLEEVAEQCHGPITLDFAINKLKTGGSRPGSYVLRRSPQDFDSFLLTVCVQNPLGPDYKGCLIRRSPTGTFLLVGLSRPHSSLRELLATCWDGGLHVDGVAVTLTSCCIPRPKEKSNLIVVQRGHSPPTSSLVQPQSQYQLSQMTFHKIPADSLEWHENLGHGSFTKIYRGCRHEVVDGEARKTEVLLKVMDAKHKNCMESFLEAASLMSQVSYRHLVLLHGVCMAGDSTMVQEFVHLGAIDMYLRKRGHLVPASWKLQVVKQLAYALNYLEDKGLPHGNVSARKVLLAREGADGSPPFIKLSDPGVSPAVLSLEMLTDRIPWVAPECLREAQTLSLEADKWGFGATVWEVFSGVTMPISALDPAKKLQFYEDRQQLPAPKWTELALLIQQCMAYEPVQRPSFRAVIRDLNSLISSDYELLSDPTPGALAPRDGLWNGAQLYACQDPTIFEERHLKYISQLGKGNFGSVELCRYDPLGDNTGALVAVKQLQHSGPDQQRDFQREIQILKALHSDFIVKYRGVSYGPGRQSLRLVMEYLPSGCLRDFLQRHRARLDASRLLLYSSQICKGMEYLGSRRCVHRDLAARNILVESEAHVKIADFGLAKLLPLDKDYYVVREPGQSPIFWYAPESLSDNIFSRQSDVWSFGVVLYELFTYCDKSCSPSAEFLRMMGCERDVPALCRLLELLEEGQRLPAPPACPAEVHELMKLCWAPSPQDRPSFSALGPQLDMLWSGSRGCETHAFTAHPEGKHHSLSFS
As to the kind of experiment: JAK3 inhibition assay (33P incorporation into poly(Glu)4Tyr). As to the method: as §1, §2, §3

Setting [1] is: Table 6, enzyme inhibition data (Ki).
Where [2] appears, read: enzyme inhibition, Ki(app), Table 5.

JAK2, sequence (O60674 whole entry): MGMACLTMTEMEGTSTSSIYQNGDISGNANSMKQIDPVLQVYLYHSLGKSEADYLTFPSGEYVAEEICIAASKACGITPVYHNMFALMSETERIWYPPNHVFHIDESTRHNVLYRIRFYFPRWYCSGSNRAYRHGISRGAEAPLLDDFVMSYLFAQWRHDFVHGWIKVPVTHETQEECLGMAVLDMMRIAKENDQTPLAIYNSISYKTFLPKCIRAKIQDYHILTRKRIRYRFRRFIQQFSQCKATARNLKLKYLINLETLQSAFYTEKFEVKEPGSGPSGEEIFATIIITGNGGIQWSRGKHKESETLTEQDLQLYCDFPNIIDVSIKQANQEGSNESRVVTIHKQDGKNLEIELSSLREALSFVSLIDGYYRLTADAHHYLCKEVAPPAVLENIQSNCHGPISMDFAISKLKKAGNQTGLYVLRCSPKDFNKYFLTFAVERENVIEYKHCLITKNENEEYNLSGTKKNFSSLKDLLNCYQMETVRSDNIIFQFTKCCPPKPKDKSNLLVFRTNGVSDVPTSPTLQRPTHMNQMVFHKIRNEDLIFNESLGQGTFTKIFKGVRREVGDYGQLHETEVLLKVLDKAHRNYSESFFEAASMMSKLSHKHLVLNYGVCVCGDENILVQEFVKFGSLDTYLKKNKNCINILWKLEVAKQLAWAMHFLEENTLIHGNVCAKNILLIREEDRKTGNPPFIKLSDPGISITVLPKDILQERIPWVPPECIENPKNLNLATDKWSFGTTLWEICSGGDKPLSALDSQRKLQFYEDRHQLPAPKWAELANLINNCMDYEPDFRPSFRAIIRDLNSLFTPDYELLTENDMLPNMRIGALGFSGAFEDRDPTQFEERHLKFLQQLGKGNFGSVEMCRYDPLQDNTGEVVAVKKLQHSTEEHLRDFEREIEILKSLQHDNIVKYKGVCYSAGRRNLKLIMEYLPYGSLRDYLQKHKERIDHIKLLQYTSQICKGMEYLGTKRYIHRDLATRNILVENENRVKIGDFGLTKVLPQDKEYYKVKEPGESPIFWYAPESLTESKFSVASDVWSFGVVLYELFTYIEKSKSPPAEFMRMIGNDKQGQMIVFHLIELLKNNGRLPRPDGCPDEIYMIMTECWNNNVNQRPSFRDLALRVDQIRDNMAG

As for `CCC(=O)N1CC[C@@H](Nc2c(Cl)cnc3[nH]ccc23)C1` [compound 176], the pKi was 5.30 to 6.30 on ROCK I (setting [1]), over 6.30 on JAK2 (setting [1]) and over 6.30 at JAK3 (setting [1]).
For the molecule `c1ccc2c(c1)Oc1c(cccc1-c1ccnc3[nH]ccc13)S2` [compound 246], the values for the pKi on ROCK I (setting [1]), on JAK2 (setting [1]) and at JAK3 (setting [1]) were under 5.40, under 5.30 and under 5.30, respectively.
Turning to `CN(CCC#N)C(=O)c1cc(-c2ccnc3[nH]ccc23)c[nH]1` [compound 306], the pKi on ROCK I (setting [1]), at JAK2 (setting [1]) and on JAK3 (setting [1]) was over 6.30 each time.
`CC1CC(Nc2c(Cl)cnc3[nH]ccc23)CC(C)(C)C1` (stereo not drawn) [compound 162]: the pKi on ROCK I (setting [1]) was 5.30 to 6.30; at JAK2 (setting [1]), over 6.30; at JAK3 (setting [1]), over 6.30.
On to `Clc1ccc(-c2ccnc3[nH]ccc23)c(Cl)c1` [compound 210], for which the pKi at ROCK I (setting [1]) was over 6.30; at JAK2 (setting [1]), 5.30 to 6.30; at JAK3 (setting [1]), 5.30 to 6.30.
Consider `O=C(NCC(F)(F)F)c1ccccc1-c1ccnc2[nH]ccc12` [compound 253], for which the negative-log Ki (pKi) was under 5.40 on ROCK I (setting [1]), under 5.30 on JAK2 (setting [1]) and under 5.30 at JAK3 (setting [1]).
As for `Clc1cnc2[nH]ccc2c1C1=CCCC1` [compound 28, 5-Chloro-4-cyclopentenyl-1H-pyrrolo[2,3b]pyridine], the pKi was 5.30 to 6.30 on ROCK I (setting [2]); over 6.30 at JAK2 (enzyme inhibition, Table 5); over 6.30 at JAK3 (enzyme inhibition, Table 5).
Consider `CN1CCCC1CCNc1cccc(-c2ccnc3[nH]ccc23)n1` (stereo not drawn) [compound 37, N-(2-(1-Methylpyrrolidin-2-yl)ethyl)-6-(1H-pyrrolo[2,3-b]pyridin-4-yl)pyridin-2-amine], for which the negative logarithm of the Ki (pKi) at ROCK I (setting [2]) was 5.30 to 6.30; on JAK2 (enzyme inhibition, Table 5), under 5.30; on JAK3 (enzyme inhibition, Table 5), under 5.30.
Take `O=C(NCC(F)(F)F)[C@@H]1CCCN1c1nc(-c2ccnc3[nH]ccc23)ncc1F` [compound 199]: the figures for the negative-log Ki (pKi) at ROCK I (setting [1]), at JAK2 (setting [1]) and on JAK3 (setting [1]) were under 5.40, 5.30 to 6.30 and over 6.30, respectively.
On to `CN(CCC(O)c1ccccc1)c1cccc(-c2ccnc3[nH]ccc23)n1` (stereo not drawn) [compound 53], for which the pKi at ROCK I (setting [2]) is over 6.30; at JAK2 (enzyme inhibition, Table 5), 5.30 to 6.30; at JAK3 (enzyme inhibition, Table 5), 5.30 to 6.30.
For `CCCS(=O)(=O)N1CC[C@H](Nc2c(Cl)cnc3[nH]ccc23)C1` [compound 178], the results for the pKi at ROCK I (setting [1]), on JAK2 (setting [1]) and at JAK3 (setting [1]) were under 5.40, over 6.30 and over 6.30, respectively.
As for `Cc1cc(C)c(-c2ccnc3[nH]ccc23)c(C)c1` [compound 242], the pKi on ROCK I (setting [1]) is under 5.40; at JAK2 (setting [1]) it was under 5.30; on JAK3 (setting [1]), under 5.30.
Regarding `CCN(CCO)C(=O)c1cc(-c2c(Cl)cnc3[nH]ccc23)c[nH]1` [compound 345], the results for the pKi on ROCK I (setting [1]), on JAK2 (setting [1]) and on JAK3 (setting [1]) were 5.30 to 6.30, over 6.30 and over 6.30, respectively.
`O=C(CCNc1nc(-c2ccnc3[nH]ccc23)ncc1F)NCC(F)(F)F` [compound 193]: the pKi at ROCK I (setting [1]) was under 5.40; on JAK2 (setting [1]), 5.30 to 6.30; at JAK3 (setting [1]), 5.30 to 6.30.
As to `CCN(Cc1ccncc1)C(=O)c1cc(-c2c(Cl)cnc3[nH]ccc23)c[nH]1` [compound 353], the pKi was 5.30 to 6.30 on ROCK I (setting [1]), over 6.30 at JAK2 (setting [1]) and over 6.30 on JAK3 (setting [1]).
Regarding `C#CCNC(=O)c1cc(-c2ccnc3[nH]ccc23)c[nH]1` [compound 294], the pKi on ROCK I (setting [1]), on JAK2 (setting [1]) and at JAK3 (setting [1]) was over 6.30 each time.
As to `CCNC(=O)c1cccc(-c2ccnc3[nH]ccc23)c1` [compound 255], the pKi at ROCK I (setting [1]), on JAK2 (setting [1]) and on JAK3 (setting [1]) was 5.30 to 6.30 each time.
Take `O=C(NCC(F)(F)F)c1cc(-c2ccnc3[nH]ccc23)c[nH]1` [compound 259]: the pKi on ROCK I (setting [1]), at JAK2 (setting [1]) and at JAK3 (setting [1]) was over 6.30 in each case.
Take `CN(CCC#N)C(=O)c1cc(-c2c(F)cnc3[nH]ccc23)c[nH]1` [compound 386]: the pKi on ROCK I (setting [1]) is 5.30 to 6.30; at JAK2 (setting [1]), over 6.30; on JAK3 (setting [1]), over 6.30.
On to `CCN(CCC#N)C(=O)c1cc(-c2c(Cl)cnc3[nH]ccc23)c[nH]1` [compound 329], for which the pKi on ROCK I (setting [1]) was 5.30 to 6.30; at JAK2 (setting [1]) it was over 6.30; at JAK3 (setting [1]) it was over 6.30.
For the molecule `O=C(c1cc(-c2ccnc3[nH]ccc23)c[nH]1)N1CCC(O)C1` (stereo not drawn) [compound 366], the pKi on ROCK I (setting [1]), on JAK2 (setting [1]) and on JAK3 (setting [1]) was 5.30 to 6.30 in each case.
In the case of `CCCOC(=O)N1CC[C@H](Nc2c(Cl)cnc3[nH]ccc23)C1` [compound 167], the pKi at ROCK I (setting [1]) was under 5.40; on JAK2 (setting [1]), over 6.30; at JAK3 (setting [1]), over 6.30.
Regarding `Clc1cnc2[nH]ccc2c1NC1CCCN(Cc2ccccc2)C1` (stereo not drawn) [compound 157], the negative-log Ki (pKi) at ROCK I (setting [1]), at JAK2 (setting [1]) and on JAK3 (setting [1]) was over 6.30 each time.
For the molecule `CC(C)Oc1ccccc1-c1ccnc2[nH]ccc12` [compound 230], the pKi is under 5.40 on ROCK I (setting [1]), 5.30 to 6.30 at JAK2 (setting [1]) and 5.30 to 6.30 at JAK3 (setting [1]).
Turning to `CCC(C)CNc1cccc(-c2ccnc3[nH]ccc23)n1` (stereo not drawn) [compound 72, N-(2-Methylbutyl)-6-(1H-pyrrolo[2,3-b]pyridin-4-yl)pyridin-2-amine], the pKi at ROCK I (setting [2]) is 5.30 to 6.30; on JAK2 (enzyme inhibition, Table 5) it was over 6.30; at JAK3 (enzyme inhibition, Table 5), 5.30 to 6.30.
In the case of `COc1cccc(Cl)c1-c1ccnc2[nH]ccc12` [compound 245], the pKi on ROCK I (setting [1]) is under 5.40; on JAK2 (setting [1]) it was under 5.30; at JAK3 (setting [1]) it was under 5.30.
Regarding `O=C1NCCCC[C@@H]1Nc1c(Cl)cnc2[nH]ccc12` [compound 228], the pKi on ROCK I (setting [1]) was under 5.40; on JAK2 (setting [1]) it was over 6.30; at JAK3 (setting [1]) it was over 6.30.
With `c1cc(-c2ccoc2)c2cc[nH]c2n1` [compound 133, 4-Furan-3-yl-1H-pyrrolo[2,3-b]pyridine], the pKi on ROCK I (setting [2]) was over 6.30; on JAK2 (enzyme inhibition, Table 5), over 6.30; on JAK3 (enzyme inhibition, Table 5), 5.30 to 6.30.
Turning to `CCCNC(=O)c1cc(-c2ccnc3[nH]ccc23)c[nH]1` [compound 283], the pKi at ROCK I (setting [1]), at JAK2 (setting [1]) and on JAK3 (setting [1]) was over 6.30 in each case.
As for `Fc1ccc(-c2ccnc3[nH]ccc23)c(F)c1` [compound 207], the pKi at ROCK I (setting [1]) is 5.30 to 6.30; on JAK2 (setting [1]), 5.30 to 6.30; on JAK3 (setting [1]), over 6.30.
As for `COC(=O)c1ccccc1-c1ccnc2[nH]ccc12` [compound 117], the negative-log Ki (pKi) on ROCK I (setting [2]) was 5.30 to 6.30; on JAK2 (enzyme inhibition, Table 5) it was under 5.30; on JAK3 (enzyme inhibition, Table 5), under 5.30.
